{"source": "PubChem BioAssay (NCI)", "assay_in_all_cases": "inhibition of tumour cell growth, NCI panel, 48 h", "key": {"SF-295 CNS": {"tested_on": "SF-295 CNS"}, "A498 renal": {"tested_on": "A498 renal"}, "SK-MEL-28 melanoma": {"tested_on": "SK-MEL-28 melanoma"}, "NCI-H522 lung": {"tested_on": "NCI-H522 lung"}, "HL-60(TB) leukemia": {"tested_on": "HL-60(TB) leukemia"}, "HOP-62 NSCLC": {"tested_on": "HOP-62 NSCLC"}, "OVCAR-3 ovarian": {"tested_on": "OVCAR-3 ovarian"}, "U251 CNS": {"tested_on": "U251 CNS"}, "SNB-75 CNS": {"tested_on": "SNB-75 CNS"}, "MDA-MB-435": {"tested_on": "MDA-MB-435"}}, "note": "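All cell lines were grown in 96-well plates and treated with compound for 48 hours. Here, GI50 denotes the concentration required for 50% inhibition of growth. TGI is the concentration that stops growth completely.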", "data": [{"smiles": "COC(=O)C1C(C(=O)OC)C2(OC)c3ccccc3-c3ccccc3C12", "note": "(centres undefined)", "values": [{"measurement": "TGI", "setting": "SF-295 CNS", "value": "> 100", "unit": "µM"}, {"measurement": "TGI", "setting": "A498 renal", "value": "> 100", "unit": "µM"}, {"measurement": "TGI", "setting": "SK-MEL-28 melanoma", "value": "> 100", "unit": "µM"}, {"measurement": "TGI", "setting": "NCI-H522 lung", "value": 88.8, "unit": "µM"}, {"measurement": "TGI", "setting": "HL-60(TB) leukemia", "value": 25.3, "unit": "µM"}, {"measurement": "TGI", "setting": "HOP-62 NSCLC", "value": "> 100", "unit": "µM"}, {"measurement": "TGI", "setting": "OVCAR-3 ovarian", "value": "> 100", "unit": "µM"}, {"measurement": "TGI", "setting": "U251 CNS", "value": "> 100", "unit": "µM"}, {"measurement": "TGI", "setting": "SNB-75 CNS", "value": "> 100", "unit": "µM"}]}, {"smiles": "COc1ccc(-c2onc(-c3ccc([N+](=O)[O-])cc3)c2C2=NCCN2)cc1", "values": [{"measurement": "TGI", "setting": "SF-295 CNS", "value": "> 100", "unit": "µM"}, {"measurement": "TGI", "setting": "SK-MEL-28 melanoma", "value": "> 100", "unit": "µM"}, {"measurement": "TGI", "setting": "HL-60(TB) leukemia", "value": "> 100", "unit": "µM"}, {"measurement": "TGI", "setting": "HOP-62 NSCLC", "value": "> 100", "unit": "µM"}, {"measurement": "TGI", "setting": "OVCAR-3 ovarian", "value": "> 100", "unit": "µM"}, {"measurement": "TGI", "setting": "U251 CNS", "value": "> 100", "unit": "µM"}, {"measurement": "TGI", "setting": "SNB-75 CNS", "value": 44, "unit": "µM"}]}, {"smiles": "O=C(/C=C/c1ccc(F)cc1)c1ccc(Cl)cc1Cl", "values": [{"measurement": "GI50", "setting": "SF-295 CNS", "value": 77.3, "unit": "µM"}, {"measurement": "TGI", "setting": "SF-295 CNS", "value": "> 100", "unit": "µM"}, {"measurement": "GI50", "setting": "A498 renal", "value": "> 100", "unit": "µM"}, {"measurement": "TGI", "setting": "A498 renal", "value": "> 100", "unit": "µM"}, {"measurement": "GI50", "setting": "NCI-H522 lung", "value": 47.7, "unit": "µM"}, {"measurement": "TGI", "setting": "NCI-H522 lung", "value": "> 100", "unit": "µM"}, {"measurement": "GI50", "setting": "HOP-62 NSCLC", "value": "> 100", "unit": "µM"}, {"measurement": "TGI", "setting": "HOP-62 NSCLC", "value": "> 100", "unit": "µM"}, {"measurement": "GI50", "setting": "OVCAR-3 ovarian", "value": 25.8, "unit": "µM"}, {"measurement": "TGI", "setting": "OVCAR-3 ovarian", "value": 73, "unit": "µM"}, {"measurement": "GI50", "setting": "U251 CNS", "value": 44.6, "unit": "µM"}, {"measurement": "TGI", "setting": "U251 CNS", "value": "> 100", "unit": "µM"}, {"measurement": "GI50", "setting": "MDA-MB-435", "value": 50, "unit": "µM"}, {"measurement": "TGI", "setting": "MDA-MB-435", "value": "> 100", "unit": "µM"}]}, {"smiles": "O=C1c2ccccc2-c2cccc3ccc(Cc4ccc5ccccc5c4)c1c23", "values": [{"measurement": "TGI", "setting": "SF-295 CNS", "value": "> 100", "unit": "µM"}, {"measurement": "TGI", "setting": "SK-MEL-28 melanoma", "value": "> 100", "unit": "µM"}, {"measurement": "TGI", "setting": "NCI-H522 lung", "value": "> 100", "unit": "µM"}, {"measurement": "TGI", "setting": "HL-60(TB) leukemia", "value": "> 100", "unit": "µM"}, {"measurement": "TGI", "setting": "HOP-62 NSCLC", "value": "> 100", "unit": "µM"}, {"measurement": "TGI", "setting": "OVCAR-3 ovarian", "value": "> 100", "unit": "µM"}, {"measurement": "TGI", "setting": "U251 CNS", "value": "> 100", "unit": "µM"}, {"measurement": "TGI", "setting": "SNB-75 CNS", "value": "> 100", "unit": "µM"}]}, {"smiles": "CCOC(=O)C(N)C[S][Sn]([CH3])([CH3])[Cl]", "note": "(centres undefined)", "values": [{"measurement": "GI50", "setting": "SF-295 CNS", "value": "> 100", "unit": "µM"}, {"measurement": "TGI", "setting": "SF-295 CNS", "value": "> 100", "unit": "µM"}, {"measurement": "GI50", "setting": "SK-MEL-28 melanoma", "value": "> 100", "unit": "µM"}, {"measurement": "TGI", "setting": "SK-MEL-28 melanoma", "value": "> 100", "unit": "µM"}, {"measurement": "GI50", "setting": "NCI-H522 lung", "value": 18.4, "unit": "µM"}, {"measurement": "TGI", "setting": "NCI-H522 lung", "value": 38.4, "unit": "µM"}, {"measurement": "GI50", "setting": "HL-60(TB) leukemia", "value": "> 51.4", "unit": "µM"}, {"measurement": "TGI", "setting": "HL-60(TB) leukemia", "value": "> 77.4", "unit": "µM"}, {"measurement": "GI50", "setting": "HOP-62 NSCLC", "value": "> 100", "unit": "µM"}, {"measurement": "TGI", "setting": "HOP-62 NSCLC", "value": "> 100", "unit": "µM"}, {"measurement": "GI50", "setting": "OVCAR-3 ovarian", "value": "> 100", "unit": "µM"}, {"measurement": "TGI", "setting": "OVCAR-3 ovarian", "value": "> 100", "unit": "µM"}, {"measurement": "GI50", "setting": "U251 CNS", "value": "> 100", "unit": "µM"}, {"measurement": "TGI", "setting": "U251 CNS", "value": "> 100", "unit": "µM"}, {"measurement": "GI50", "setting": "SNB-75 CNS", "value": 52.5, "unit": "µM"}, {"measurement": "TGI", "setting": "SNB-75 CNS", "value": "> 100", "unit": "µM"}]}, {"smiles": "COc1ccc(N2C(=O)CC(Cl)C2=O)cc1", "note": "(centres undefined)", "values": [{"measurement": "TGI", "setting": "A498 renal", "value": "> 100", "unit": "µM"}, {"measurement": "TGI", "setting": "SK-MEL-28 melanoma", "value": 30.2, "unit": "µM"}, {"measurement": "TGI", "setting": "NCI-H522 lung", "value": 36.5, "unit": "µM"}, {"measurement": "TGI", "setting": "HOP-62 NSCLC", "value": "> 100", "unit": "µM"}, {"measurement": "TGI", "setting": "OVCAR-3 ovarian", "value": 28.7, "unit": "µM"}, {"measurement": "TGI", "setting": "U251 CNS", "value": "> 100", "unit": "µM"}, {"measurement": "TGI", "setting": "MDA-MB-435", "value": "> 100", "unit": "µM"}, {"measurement": "TGI", "setting": "SNB-75 CNS", "value": "> 100", "unit": "µM"}]}, {"smiles": "O=S(=O)(N/N=C/c1ccc(/C=N/NS(=O)(=O)c2ccccc2)cc1)c1ccccc1", "values": [{"measurement": "TGI", "setting": "SF-295 CNS", "value": 45.6, "unit": "µM"}, {"measurement": "TGI", "setting": "A498 renal", "value": "> 100", "unit": "µM"}, {"measurement": "TGI", "setting": "SK-MEL-28 melanoma", "value": "> 100", "unit": "µM"}, {"measurement": "TGI", "setting": "HL-60(TB) leukemia", "value": 53.3, "unit": "µM"}, {"measurement": "TGI", "setting": "HOP-62 NSCLC", "value": "> 100", "unit": "µM"}, {"measurement": "TGI", "setting": "OVCAR-3 ovarian", "value": "> 100", "unit": "µM"}, {"measurement": "TGI", "setting": "U251 CNS", "value": "> 100", "unit": "µM"}, {"measurement": "TGI", "setting": "SNB-75 CNS", "value": "> 100", "unit": "µM"}]}, {"smiles": "CCCCOC(=O)NC(=O)c1cn(CCCOC(=O)CCCCCCCCC(=O)OCCCn2cc(C(=O)NC(=O)OCCCC)c(=O)[nH]c2=O)c(=O)[nH]c1=O", "values": [{"measurement": "TGI", "setting": "SF-295 CNS", "value": "> 100", "unit": "µM"}, {"measurement": "TGI", "setting": "SK-MEL-28 melanoma", "value": "> 100", "unit": "µM"}, {"measurement": "TGI", "setting": "HL-60(TB) leukemia", "value": "> 100", "unit": "µM"}, {"measurement": "TGI", "setting": "HOP-62 NSCLC", "value": "> 100", "unit": "µM"}, {"measurement": "TGI", "setting": "OVCAR-3 ovarian", "value": "> 100", "unit": "µM"}, {"measurement": "TGI", "setting": "U251 CNS", "value": "> 100", "unit": "µM"}]}, {"smiles": "O=[N+]([O-])c1cccc(C2N3CCCCC3[C@@H]3c4[nH]c5ccccc5c4CCN23)c1", "note": "(some centres undefined)", "values": [{"measurement": "TGI", "setting": "SF-295 CNS", "value": 31.4, "unit": "µM"}, {"measurement": "TGI", "setting": "A498 renal", "value": 29.5, "unit": "µM"}, {"measurement": "TGI", "setting": "SK-MEL-28 melanoma", "value": 29.8, "unit": "µM"}, {"measurement": "TGI", "setting": "HL-60(TB) leukemia", "value": 29, "unit": "µM"}, {"measurement": "TGI", "setting": "HOP-62 NSCLC", "value": 30.2, "unit": "µM"}, {"measurement": "TGI", "setting": "OVCAR-3 ovarian", "value": 32.2, "unit": "µM"}, {"measurement": "TGI", "setting": "U251 CNS", "value": 28.4, "unit": "µM"}]}, {"smiles": "CC(=O)c1cccc(N2COC(C)(C)c3nc4ccccc4n3C2)c1", "values": [{"measurement": "TGI", "setting": "SF-295 CNS", "value": "> 100", "unit": "µM"}, {"measurement": "TGI", "setting": "A498 renal", "value": "> 100", "unit": "µM"}, {"measurement": "TGI", "setting": "SK-MEL-28 melanoma", "value": "> 100", "unit": "µM"}, {"measurement": "TGI", "setting": "NCI-H522 lung", "value": "> 100", "unit": "µM"}, {"measurement": "TGI", "setting": "HL-60(TB) leukemia", "value": "> 100", "unit": "µM"}, {"measurement": "TGI", "setting": "HOP-62 NSCLC", "value": "> 100", "unit": "µM"}, {"measurement": "TGI", "setting": "OVCAR-3 ovarian", "value": "> 100", "unit": "µM"}, {"measurement": "TGI", "setting": "U251 CNS", "value": "> 100", "unit": "µM"}, {"measurement": "TGI", "setting": "SNB-75 CNS", "value": "> 100", "unit": "µM"}]}, {"smiles": "CC/C(C)=C1\\CCC(CN2CCOCC2)C1=O", "note": "(centres undefined)", "values": [{"measurement": "TGI", "setting": "SF-295 CNS", "value": "> 100", "unit": "µM"}, {"measurement": "TGI", "setting": "A498 renal", "value": 39.1, "unit": "µM"}, {"measurement": "TGI", "setting": "SK-MEL-28 melanoma", "value": 32, "unit": "µM"}, {"measurement": "TGI", "setting": "HL-60(TB) leukemia", "value": 44, "unit": "µM"}, {"measurement": "TGI", "setting": "HOP-62 NSCLC", "value": 40.2, "unit": "µM"}, {"measurement": "TGI", "setting": "OVCAR-3 ovarian", "value": 29.5, "unit": "µM"}, {"measurement": "TGI", "setting": "SNB-75 CNS", "value": 40.6, "unit": "µM"}]}]}
